Reference: the NIST ThermoML archive (doi:10.1021/je050175u)
± gives the expanded uncertainty stated by the source.

Test: excess molar enthalpy (molar enthalpy of mixing); xn = mol fraction of the nth substance listed
Conditions: Liquid, Flow calorimetry

COC(C)=O [methyl ethanoate] + CCCO
excess molar enthalpy [kcal/mol]
Conditions	298.15 K	333.15 K
5000 kPa, x1 = 0.051	0.0748 ± 0.00172	–
5000 kPa, x1 = 0.099	0.143 ± 0.0021	–
5000 kPa, x1 = 0.149	0.201 ± 0.00263	–
5000 kPa, x1 = 0.199	0.248 ± 0.00287	–
5000 kPa, x1 = 0.251	0.287 ± 0.00335	–
5000 kPa, x1 = 0.3	0.316 ± 0.00359	–
5000 kPa, x1 = 0.349	0.338 ± 0.00359	–
5000 kPa, x1 = 0.4	0.354 ± 0.00382	–
5000 kPa, x1 = 0.451	0.363 ± 0.00382	–
5000 kPa, x1 = 0.501	0.364 ± 0.00382	–
5000 kPa, x1 = 0.551	0.358 ± 0.00382	–
5000 kPa, x1 = 0.6	0.347 ± 0.00382	–
5000 kPa, x1 = 0.65	0.33 ± 0.00359	–
5000 kPa, x1 = 0.701	0.305 ± 0.00335	–
5000 kPa, x1 = 0.749	0.273 ± 0.00311	–
5000 kPa, x1 = 0.8	0.236 ± 0.00263	–
5000 kPa, x1 = 0.85	0.191 ± 0.00215	–
5000 kPa, x1 = 0.899	0.136 ± 0.0016	–
5000 kPa, x1 = 0.951	0.0711 ± 0.000956	–
10000 kPa, x1 = 0.051	0.0813 ± 0.0017	0.0961 ± 0.00206
10000 kPa, x1 = 0.099	0.145 ± 0.0021	0.168 ± 0.00237
10000 kPa, x1 = 0.149	0.202 ± 0.00239	–
10000 kPa, x1 = 0.15	–	0.232 ± 0.00287
10000 kPa, x1 = 0.199	0.248 ± 0.00287	–
10000 kPa, x1 = 0.2	–	0.287 ± 0.00335
10000 kPa, x1 = 0.25	0.287 ± 0.00311	0.329 ± 0.00359
10000 kPa, x1 = 0.3	0.316 ± 0.00335	0.363 ± 0.00382
10000 kPa, x1 = 0.349	0.337 ± 0.00359	–
10000 kPa, x1 = 0.35	–	0.389 ± 0.00406
10000 kPa, x1 = 0.399	0.353 ± 0.00382	0.408 ± 0.0043
10000 kPa, x1 = 0.448	–	0.418 ± 0.0043
10000 kPa, x1 = 0.45	0.361 ± 0.00382	–
10000 kPa, x1 = 0.5	0.362 ± 0.00382	0.422 ± 0.00454
10000 kPa, x1 = 0.548	–	0.419 ± 0.0043
10000 kPa, x1 = 0.55	0.357 ± 0.00382	–
10000 kPa, x1 = 0.599	0.346 ± 0.00359	0.405 ± 0.0043
10000 kPa, x1 = 0.649	0.33 ± 0.00359	–
10000 kPa, x1 = 0.65	–	0.384 ± 0.00406
10000 kPa, x1 = 0.7	0.305 ± 0.00335	0.355 ± 0.00382
10000 kPa, x1 = 0.749	0.274 ± 0.00311	–
10000 kPa, x1 = 0.751	–	0.317 ± 0.00359
10000 kPa, x1 = 0.799	0.237 ± 0.00263	–
10000 kPa, x1 = 0.801	–	0.271 ± 0.00311
10000 kPa, x1 = 0.849	0.189 ± 0.00237	–
10000 kPa, x1 = 0.85	–	0.215 ± 0.00263
10000 kPa, x1 = 0.899	0.135 ± 0.00198	0.15 ± 0.00225
10000 kPa, x1 = 0.949	–	0.0751 ± 0.00182
10000 kPa, x1 = 0.951	0.0683 ± 0.00158	–
